Assay results: US20180296456A1, “Decapeptide-12 Modulation of Sirtuin Gene Expression in Epidermal Keratinocyte Progenitors” (Escape Therapeutics, Inc., priority 2017, published 2018)
Peptide text beside a SMILES is read from it.

Experiments:
SIRT3 = SIRT3 transcription, semi-quantitative RT-PCR in human epidermal progenitors; type: cell-based; conditions: 72 h
Procedure: (§1) Human neonatal epidermal progenitors (Thermo Fisher Scientific, NY) were seeded in 6-well plates at a density of 2×10^5 cells/well. Each well received 2 ml of Epilife media containing 60 μM calcium chloride (Thermo Fisher Scientific, NY). Plates were incubated in a humidified chamber at 37 degrees Celsius and 5 percent CO2. Twenty-four hours later, cells were treated with various concentrations of oxyresveratrol or decapeptide-12 dissolved in PBS containing 5 percent DMSO. Control wells received vehicle only (5 percent DMSO and PBS). Final concentration of DMSO in each well was 0.05 percent.
(§2) After a 72 hour incubation period, cells were trypsinized and total RNA extracted, using RNeasy kit (Qiagen, Valencia, Calif.) according to the manufacturer's protocol.
(§3) RNA concentration was determined using nanodrop (Thermo fisher scientific, NY). Two μg of total RNA were used to synthesize cDNA using oligo dT primers and TaqMan reverse transcription reagents (Thermo fisher scientific, NY). The reaction was carried out in DNA Engine Peltier Thermal Cycler (Bio-Rad, Hercules, Calif.). The annealing temperature was 25 degrees Celsius for 10 minutes, followed by first strand synthesis at 48 degrees Celsius for 1 hour, and heat inactivation at 95 degrees Celsius for 5 minutes.
(§4) The SIRT1-7 primers (table 1) were designed using Primer3. The semi-quantitative PCR reactions were performed on a DNA Engine Peltier Thermo Cycler (Bio-Rad, Hercules, Calif.). PCR was carried under the following conditions: denaturation at 94 degrees Celsius for 2 minutes and primer extension at 54 degrees Celsius for 30 seconds in 34 cycles for SIRT 1-7 and the housekeeping gene 18S.
(§5) Samples were run and resolved on a 1.5 percent agarose gel containing 0.5 μg/ml of ethidium bromide and imaged using the FluorChem HD2 Imaging System (Protein simple, San Jose, Calif.). Densitometry analysis was carried out using the AlphaEase FC software (Protein simple, San Jose, Calif.). Intensity ratios were calculated as the intensity value for each gene divided by the intensity value of the internal control gene 18S.
(§6) The effect of the decapeptides P4, P4A, P4B, and P4C upon the transcription levels of sirtuins 1-7 was evaluated. Table 4 summarizes transcription levels for all four decapeptides with the corresponding genes, at tested concentrations of: 10, 30, 50, 100, and 300 (all in μM).

SIRT5 = SIRT5 transcription, semi-quantitative RT-PCR in human epidermal progenitors; type: cell-based; conditions: 72 h
Procedure: as §1, §2, §3, §4, §5, §6

SIRT6 = SIRT6 transcription, semi-quantitative RT-PCR in human epidermal progenitors; type: cell-based; conditions: 72 h
Procedure: as §1, §2, §3, §4, §5, §6

[1] = MTT cell proliferation assay, melanoblasts; type: cell-based, human; conditions: human, MTT, 72 h, read-out: melanoblast proliferation rate after 72 hours
Procedure: (§7) Proliferation rates for three human cell lines (epidermal progenitors, melanoblasts, and fibroblasts) were determined using a TACS® MTT Cell Proliferation Kit. Cells were seeded at 2.5×10^4/well in 96-well plates in a humidified atmosphere with 5 percent CO2 at 37 degrees Celsius. Twenty-four hours later, the decapeptides were added to the corresponding wells at varying concentrations and incubated for 72 hours. The remainder of the procedure was performed following the manufacturer's protocol.

SIRT7 = SIRT7 transcription, semi-quantitative RT-PCR in human epidermal progenitors; type: cell-based; conditions: 72 h
Procedure: as §1, §2, §3, §4, §5, §6

[2] = Trypan blue cell viability, 7 days, fibroblasts; type: cell-based; conditions: human, relative to control, read-out: fibroblast viability after 7 days
Procedure: (§8) The effect of each of the decapeptides upon cell viability was also tested. In particular, cells were incubated with the decapeptide at various concentrations and then counted for viability relative to the control (untreated cells) using trypan blue. Cytotoxicity was measured according to the following formula:
(§9) [1−(# of cells in control−# of live cells in test sample)/# of cells in control]×100 percent.

[3] = Trypan blue cell viability, 7 days, epidermal progenitors; type: cell-based; conditions: human, relative to control, read-out: epidermal progenitor viability after 7 days
Procedure: as §8, §9

[4] = Trypan blue cell viability, 7 days, melanoblasts; type: cell-based; conditions: human, relative to control, read-out: melanoblast viability after 7 days
Procedure: as §8, §9

in vitro = type: cell-based; conditions: human, human epidermal progenitors
Procedure: Proliferation rates were determined using a TACS® MTT Cell Proliferation Kit (R&D systems, Minneapolis, Minn.). Cells were seeded at 2.5×10^4/well in 96-well plates in a humidified atmosphere with 5 percent CO2 at 37 degrees Celsius. Twenty-four hours later, decapeptide-12 or oxyresveratrol were added to the corresponding wells at varying concentrations (0, 3, 10, 30, 100, 300, and 1000 μM), and cultures were then incubated for 72 hours. The remainder of the procedure was performed following the manufacturer's protocol.
as §7

CCCCCCCCCCCCCCCC(=O)N[C@@H](Cc1ccc(O)cc1)C(=O)N[C@@H](CCCNC(=N)N)C(=O)N[C@@H](CO)C(=O)N[C@@H](CCCNC(=N)N)C(=O)N[C@@H](CCCCN)C(=O)N[C@@H](Cc1ccc(O)cc1)C(=O)N[C@@H](CO)C(=O)N[C@@H](CO)C(=O)N[C@@H](Cc1c[nH]c2ccccc12)C(=O)N[C@@H](Cc1ccc(O)cc1)C(N)=O [P4A, Palmitoyl-YRSRKYSSWY-amide] (HELM PEPTIDE1{[CCCCCCCCCCCCCCCC(=O)[*:2]].Y.R.S.R.K.Y.S.S.W.Y.[am]}$$$$V2.0)
SIRT3 transcription increase relative to control (SIRT3; 10 μM): 25 ± 4% | SIRT3 transcription increase relative to control (SIRT3; 30 μM): 26 ± 3% | SIRT3 transcription increase relative to control (SIRT3; 50 μM): 60 ± 4% | SIRT3 transcription increase relative to control (SIRT3; 100 μM): 152 ± 2% | SIRT3 transcription increase relative to control (SIRT3; 300 μM): 147 ± 2% | SIRT5 transcription increase relative to control (SIRT5; 10 μM): 13 ± 2% | SIRT5 transcription increase relative to control (SIRT5; 30 μM): 12 ± 2% | SIRT5 transcription increase relative to control (SIRT5; 50 μM): 10 ± 3% | SIRT5 transcription increase relative to control (SIRT5; 100 μM): 47 ± 7% | SIRT5 transcription increase relative to control (SIRT5; 300 μM): 29 ± 4% | SIRT6 transcription increase relative to control (SIRT6; 10 μM): 24 ± 5% | SIRT6 transcription increase relative to control (SIRT6; 30 μM): 25 ± 5% | SIRT6 transcription increase relative to control (SIRT6; 50 μM): 33 ± 7% | SIRT6 transcription increase relative to control (SIRT6; 100 μM): 135 ± 10% | SIRT6 transcription increase relative to control (SIRT6; 300 μM): 85 ± 5% | viability at 72 h, 3 µM ([1]; 3 μM): 100% | viability at 72 h, 10 µM ([1]; 10 μM): 100% | viability at 72 h, 30 µM ([1]; 30 μM): 99 ± 1% | viability at 72 h, 50 µM ([1]; 50 μM): 98 ± 1% | viability at 72 h, 100 µM ([1]; 100 μM): 97 ± 2% | viability at 72 h, 300 µM ([1]; 300 μM): 97 ± 2% | viability at 72 h, 500 µM ([1]; 500 μM): 96 ± 2% | viability at 72 h, 1000 µM ([1]; 1000 μM): 95 ± 2% | SIRT7 transcription increase relative to control (SIRT7; 10 μM): 29 ± 6% | SIRT7 transcription increase relative to control (SIRT7; 30 μM): 33 ± 5% | SIRT7 transcription increase relative to control (SIRT7; 50 μM): 52 ± 4% | SIRT7 transcription increase relative to control (SIRT7; 100 μM): 87 ± 6% | SIRT7 transcription increase relative to control (SIRT7; 300 μM): 113 ± 2% | viability at 168 h, 3 µM ([2]; 3 μM): 100% | viability at 168 h, 10 µM ([2]; 10 μM): 98.9 ± 1% | viability at 168 h, 30 µM ([2]; 30 μM): 98.4 ± 1% | viability at 168 h, 50 µM ([2]; 50 μM): 98 ± 1% | viability at 168 h, 100 µM ([2]; 100 μM): 97.4 ± 2% | viability at 168 h, 300 µM ([2]; 300 μM): 96.6 ± 2% | viability at 168 h, 500 µM ([2]; 500 μM): 95.5 ± 2% | viability at 168 h, 1000 µM ([2]; 1000 μM): 94.3 ± 2% | viability at 168 h, 3 µM ([3]; 3 μM): 100% | viability at 168 h, 10 µM ([3]; 10 μM): 99 ± 1% | viability at 168 h, 30 µM ([3]; 30 μM): 98.2 ± 1% | viability at 168 h, 50 µM ([3]; 50 μM): 97.5 ± 1% | viability at 168 h, 100 µM ([3]; 100 μM): 96.9 ± 2% | viability at 168 h, 300 µM ([3]; 300 μM): 95.6 ± 2% | viability at 168 h, 500 µM ([3]; 500 μM): 94.3 ± 2% | viability at 168 h, 1000 µM ([3]; 1000 μM): 93.6 ± 3% | viability at 168 h, 3 µM ([4]; 3 μM): 100% | viability at 168 h, 10 µM ([4]; 10 μM): 99 ± 1% | viability at 168 h, 30 µM ([4]; 30 μM): 98.5 ± 1% | viability at 168 h, 50 µM ([4]; 50 μM): 98 ± 1% | viability at 168 h, 100 µM ([4]; 100 μM): 97 ± 2% | viability at 168 h, 300 µM ([4]; 300 μM): 96.2 ± 2% | viability at 168 h, 500 µM ([4]; 500 μM): 95.6 ± 2% | viability at 168 h, 1000 µM ([4]; 1000 μM): 94.8 ± 2% | viability at 72 h, 3 µM (in vitro): 99 ± 1% | viability at 72 h, 10 µM (in vitro): 99 ± 1% | viability at 72 h, 30 µM (in vitro): 98 ± 1% | viability at 72 h, 50 µM (in vitro): 97 ± 1% | viability at 72 h, 100 µM (in vitro): 97 ± 2% | viability at 72 h, 300 µM (in vitro): 96 ± 2% | viability at 72 h, 500 µM (in vitro): 96 ± 2% | viability at 72 h, 1000 µM (in vitro): 94 ± 2%
